Reference: patent publication US20230147468A1, “RECOMBINANT PEPTIDE TO TREAT FIRE BLIGHT” (INNATE IMMUNITY LLC, priority 2020, published 2023)
No end group written: not given here.

Key:
[1] = tested on: Erwinia amylovora (ATCC 49946); assay: Minimum inhibitory concentration, serial dilutions of peptide; assay type: cell-based; conditions: for activity against Erwinia amylovora (MIC assay): Erwinia amylovora ATCC 49946, serial dilutions
apple reference gene = assay: Detached leaf assay, Ct of apple reference gene; assay type: in vivo; conditions: detached apple leaves treated with 28P-2
Excerpt: Water was used as a control.

Xanthomonas perforans = assay: Minimum inhibitory concentration assay; assay type: cell-based; conditions: causes spot in tomato
[2] = tested on: Xanthomonas euvesicatoria; assay: Minimum inhibitory concentration assay; assay type: cell-based; conditions: causes spot in tomato
Pseudomonas syringae = assay: Minimum inhibitory concentration assay; assay type: cell-based; conditions: causes speck in tomato
Ralstonia solanaeceum = assay type: cell-based; conditions: causes bacterial wilt in tomato

KEIVRRIEKFLRGPGRKRIVERIEKFLR [28P-8]
activity against Erwinia amylovora (MIC assay) [1]: active

KLIKLIKKILKKGPGRKLIKLIKKILKK [28P-4]
activity against Erwinia amylovora (MIC assay) [1]: active

KRIVQRIKDFLRGPGRKRIVQRIKDFLR [28P-2]
level (Ct) of apple reference gene upon treatment (apple reference gene): remained unchanged

KVLSRVHAALKSIFDLGPGRKVLSRVHAALKSIFDL [36P]
toxicity to Erwinia amylovora by MIC, compared with 28P-2 ([1]; 36P relative to 28P-2, FIG. 5): significantly more toxic | activity against Erwinia amylovora (MIC assay) [1]: significant activity | activity against Xanthomonas perforans (Xanthomonas perforans): significant activity | activity against Xanthomonas euvesicatoria [2]: significant activity | activity against Pseudomonas syringae (Pseudomonas syringae): significant activity | activity against Ralstonia solanaeceum (Ralstonia solanaeceum): significant activity
